{
  "source": "patent US10682332B2",
  "about": "“Method for treating melanoma” (Huanggang normal University, priority 2017, dated 2020)",
  "key": {"[1]": {"test_system": "human melanoma cancer cell A375", "assay": "Cell cycle arrest by PI staining and flow cytometry", "format": "cell-based", "conditions": "24 hrs, control 1.4%", "method": "To further elucidate the mechanism of growth inhibition of the human melanoma cancer cells by 5-hydroxy-3,6,7,8,3′,4′-hexamethoxyflavone, another study was carried out using only human melanoma cancer cell A375 and 3 study groups. In one liter of the culturing media, 100 μL of 25 and 50 μmol of 5-hydroxy-3,6,7,8,3′,4′-hexamethoxyflavone prepared solutions were added to two study groups. The control group was only treated with 2% DMSO solution.\nThe studied cells were incubated for 24 hrs before collected in a centrifuge tube. The cells were then washed with PBS at 4° C. and n mixed with 70% ethanol pre-cooled at −20° C. before kept at 4° C. overnight. Next, the cells were centrifuged at 1000 rpm to remove ethanol and the cell density was adjusted to (1-2)×10^6 cells/mL by add PBS. Following adding PI and DNase-free RNase to respectively reach final concentrations of 50 μg/mL and 50 µg/mL, the cells were stained for cell cycle and apoptosis studies by flow cytometry. All studies were repeated 3 times and the averages were calculated."}, "[2]": {"test_system": "human melanoma cancer cell A375", "assay": "Growth inhibition of human melanoma cancer cell A375", "format": "cell-based", "conditions": "3.125-50 μmol solutions, 48 hrs culturing, absorbance", "method": "(§1) The study was conducted using human melanoma cancer cell line A2058 or A375 as follows: culturing the cell line in DMEM medium; adding 5-hydroxy-3,6,7,8,3′,4′-hexamethoxyflavone with varying concentrations (3.125, 6.25, 12.5, 25, 50 μmol in 100 μl of 2% DMSO solution per liter of the medium); collecting the control and treated cells after 48 hrs of culturing and determining the cell viability by measuring light absorbance of the cells; and calculating the IC50 rate in the human melanoma cancer cells.\n(§2) The cells derived from human melanoma lines A2058 and A375 were cultured in DMEM medium containing 100 U/mL penicillin, 100 μg/ml streptomycin, and 10% fetal bovine serum at a temperature of 37° C. and with carbon dioxide at a concentration of 5%. The cultured cells were divided into 6 study groups and each would be treated with 5-hydroxy-3,6,7,8,3′,4′-hexamethoxyflavone of a different concentration. […] After culturing for 48 hrs, the cells were collected and the absorbance of each treatment group was measured for calculating the IC50 rate in human melanoma cancer cell A2058 by the treatment. […]"}, "[3]": {"test_system": "human melanoma cancer cell A2058", "assay": "Growth inhibition of human melanoma cancer cell A2058", "format": "cell-based", "conditions": "3.125-50 μmol solutions, 48 hrs culturing, absorbance", "method": "as §1, §2"}, "[4]": {"test_system": "human melanoma cancer cell A375-engrafted C57BL/6 mice", "assay": "Tumor growth in human melanoma cancer cell A375-engrafted C57BL/6 mice", "format": "in vivo, mouse", "conditions": "fed 0.4 mL of 0.5 μmol solution once every 2 days, 28 days after inoculation; control 2450 mm^3", "method": "The study was carried out as follows: inoculating C57BL/6 mice with of the human melanoma cancer cells; dividing the mice into 2 groups with 8 mice in each group and treating them once every two days with (i) 0.4 ml of 2% DMSO, (ii) 0.4 ml of 2% DMSO containing 0.5 μmol of 5-hydroxy-3,6,7,8,3′,4′-hexamethoxyflavone; measuring tumor sizes after animal sacrificing 28 days post tumor cell inoculation.\nThe experimental C57BL/6 mice were divided into 2 groups, with 8 in each group. Each mouse was fed with 0.4 mL of 0.5 μmol 5-hydroxy-3,6,7,8,3′,4′-hexamethoxyflavone solution as in the treatment group or with 0.4 mL 2% DMSO solution as in the control group at a frequency of once every 2 days. Each mouse was inoculated with human melanoma cancer cell A375 following a standard protocol. 28 days after of the inoculation, the mice were sacrificed. Finally, sizes of tumors in each group of mice were measured and their averages were calculated."}},
  "data": [
    {"smiles": "COc1ccc(-c2oc3c(OC)c(OC)c(OC)c(O)c3c(=O)c2OC)cc1OC", "note": "[2-(3,4-dimethoxy-phenyl)-5-hydroxy-3,6,7,8-tetramethoxy-chromen-4-one]", "values": [
      {"measurement": "G1 phase cells of the total cells", "setting": "[1]; 25 μmol drug solution", "result": 9.4, "unit": "%"},
      {"measurement": "G1 phase cells of the total cells", "setting": "[1]; 50 μmol drug solution", "result": 25, "unit": "%"},
      {"measurement": "growth of human melanoma cancer cell A375", "setting": "[2]", "result": "inhibited the growth"},
      {"measurement": "growth of human melanoma cancer cell A2058", "setting": "[3]", "result": "inhibited the growth"},
      {"measurement": "average tumor size", "setting": "[4]", "result": 890, "unit": "mm^3"}
    ]}
  ]
}
